# Source: patent US12643871B2, “Aryl formamide compound containing chiral sulfur oxide or salt thereof, preparation method, herbicidal composition and use thereof” (Qingdao Kingagroot Chemical Compound Co., Ltd., priority 2019, dated 2026)
# Experiments:
# Assay in all cases: Weeding effect in post-emergence stage
# Assay type in all cases: in vivo
# Details in all cases: 250 g/ha; 2 leaf stage; 15 days after application; fresh weight control rate
# Setaria viridis = test system: Setaria viridis
# In short: (§1)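 Post-emergence spray, 2-leaf stage; doses 500–15 g/ha; acetone + Tween 80 + methyl oleate EC (1.5 L/ha) as synergist. Greenhouse 15 d. Readout: fresh weight control rate graded levels 0–5 (5 = above 85%, 0 = below 5%); triplicate means.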
# Amaranthus retroflexus = test system: Amaranthus retroflexus
# In short: as §1
# Echinochloa crusgali = test system: Echinochloa crusgali
# In short: as §1
# Digitaria sanguinalis = test system: Digitaria sanguinalis
# In short: as §1
# Abutilon theophrasti = test system: Abutilon theophrasti
# In short: as §1
Structure (SMILES),"weeding effect in post-emergence stage, activity level (growth control rate), Setaria viridis (Setaria viridis)","weeding effect in post-emergence stage, activity level (growth control rate), Amaranthus retroflexus (Amaranthus retroflexus)","weeding effect in post-emergence stage, activity level (growth control rate), Echinochloa crusgali (Echinochloa crusgali)","weeding effect in post-emergence stage, activity level (growth control rate), Digitaria sanguinalis (Digitaria sanguinalis)","weeding effect in post-emergence stage, activity level (growth control rate), Abutilon theophrasti (Abutilon theophrasti)"
CSc1c(C(=O)Nc2nnc(C)o2)ccc(C(F)(F)F)c1[S@+]([O-])CC(F)(F)F [Compound 556],5 (Level 5: growth control rate is above 85%),5 (Level 5: growth control rate is above 85%),5 (Level 5: growth control rate is above 85%),5 (Level 5: growth control rate is above 85%),5 (Level 5: growth control rate is above 85%)
COCCC[S@@+]([O-])c1c(C(F)(F)F)ccc(C(=O)Nc2nnc(C)o2)c1F [Compound 75],5 (Level 5: growth control rate is above 85%),5 (Level 5: growth control rate is above 85%),5 (Level 5: growth control rate is above 85%),5 (Level 5: growth control rate is above 85%),5 (Level 5: growth control rate is above 85%)
CCC[S@@+]([O-])c1c(C(F)(F)F)ccc(C(=O)Nc2nnc(C(C)C)o2)c1F [Compound 359],5 (Level 5: growth control rate is above 85%),5 (Level 5: growth control rate is above 85%),5 (Level 5: growth control rate is above 85%),5 (Level 5: growth control rate is above 85%),5 (Level 5: growth control rate is above 85%)
CCOC[S@+]([O-])c1c(C(F)(F)F)ccc(C(=O)Nc2nnc(C)o2)c1OC [Compound 343],5 (Level 5: growth control rate is above 85%),5 (Level 5: growth control rate is above 85%),5 (Level 5: growth control rate is above 85%),5 (Level 5: growth control rate is above 85%),5 (Level 5: growth control rate is above 85%)
Cc1nnc(NC(=O)c2ccc(C(F)(F)F)c([S@+]([O-])C(F)(F)C(F)(F)F)c2F)o1 [Compound 31],5 (Level 5: growth control rate is above 85%),5 (Level 5: growth control rate is above 85%),5 (Level 5: growth control rate is above 85%),5 (Level 5: growth control rate is above 85%),5 (Level 5: growth control rate is above 85%)
C=CCC[S@@+]([O-])c1c(C(F)(F)F)ccc(C(=O)Nc2nnc(C)o2)c1OC [Compound 312],5 (Level 5: growth control rate is above 85%),5 (Level 5: growth control rate is above 85%),5 (Level 5: growth control rate is above 85%),5 (Level 5: growth control rate is above 85%),5 (Level 5: growth control rate is above 85%)
CCCn1nnnc1NC(=O)c1ccc(C(F)(F)F)c([S@+]([O-])CC)c1OC [Compound 447],5 (Level 5: growth control rate is above 85%),5 (Level 5: growth control rate is above 85%),5 (Level 5: growth control rate is above 85%),5 (Level 5: growth control rate is above 85%),5 (Level 5: growth control rate is above 85%)
COCCC[S@@+]([O-])c1c(C(F)(F)F)ccc(C(=O)Nc2nnc(C)o2)c1OC [Compound 345],5 (Level 5: growth control rate is above 85%),5 (Level 5: growth control rate is above 85%),5 (Level 5: growth control rate is above 85%),5 (Level 5: growth control rate is above 85%),5 (Level 5: growth control rate is above 85%)
CC=CC[S+]([O-])c1c(C(F)(F)F)ccc(C(=O)Nc2nnc(C)o2)c1F (centres unmarked) [Compound 21],5 (Level 5: growth control rate is above 85%),5 (Level 5: growth control rate is above 85%),5 (Level 5: growth control rate is above 85%),5 (Level 5: growth control rate is above 85%),5 (Level 5: growth control rate is above 85%)
COCC[S@@+]([O-])c1c(C(F)(F)F)ccc(C(=O)Nc2nnc(C)o2)c1OC [Compound 344],5 (Level 5: growth control rate is above 85%),5 (Level 5: growth control rate is above 85%),5 (Level 5: growth control rate is above 85%),5 (Level 5: growth control rate is above 85%),5 (Level 5: growth control rate is above 85%)
COCC[S@@+]([O-])c1c(C(F)(F)F)ccc(C(=O)Nc2nnco2)c1F [Compound 582],5 (Level 5: growth control rate is above 85%),5 (Level 5: growth control rate is above 85%),5 (Level 5: growth control rate is above 85%),5 (Level 5: growth control rate is above 85%),5 (Level 5: growth control rate is above 85%)
COc1c(C(=O)Nc2nnc(C)o2)ccc(C(F)(F)F)c1[S@+]([O-])CCC(F)(C(F)(F)F)C(F)(F)F [Compound 331],5 (Level 5: growth control rate is above 85%),5 (Level 5: growth control rate is above 85%),5 (Level 5: growth control rate is above 85%),5 (Level 5: growth control rate is above 85%),5 (Level 5: growth control rate is above 85%)
CCC(C)[S@@+]([O-])c1c(C(F)(F)F)ccc(C(=O)Nc2nnc(C)o2)c1F (some centres unmarked) [Compound 5],5 (Level 5: growth control rate is above 85%),5 (Level 5: growth control rate is above 85%),5 (Level 5: growth control rate is above 85%),5 (Level 5: growth control rate is above 85%),5 (Level 5: growth control rate is above 85%)
Cc1nnc(NC(=O)c2ccc(C(F)(F)F)c([S@+]([O-])CCC(F)(C(F)(F)F)C(F)(F)F)c2F)o1 [Compound 36],5 (Level 5: growth control rate is above 85%),5 (Level 5: growth control rate is above 85%),5 (Level 5: growth control rate is above 85%),5 (Level 5: growth control rate is above 85%),5 (Level 5: growth control rate is above 85%)
CSc1c(C(=O)Nc2nnc(C)o2)ccc(C(F)(F)F)c1[S@+]([O-])CCCl [Compound 562],5 (Level 5: growth control rate is above 85%),5 (Level 5: growth control rate is above 85%),5 (Level 5: growth control rate is above 85%),5 (Level 5: growth control rate is above 85%),5 (Level 5: growth control rate is above 85%)
COCC[S@@+]([O-])c1c(C(F)(F)F)ccc(C(=O)Nc2nnc(C)o2)c1F [Compound 72],5 (Level 5: growth control rate is above 85%),5 (Level 5: growth control rate is above 85%),5 (Level 5: growth control rate is above 85%),5 (Level 5: growth control rate is above 85%),5 (Level 5: growth control rate is above 85%)
